Laboratory results: paper PMC2868067 (Molecular cancer therapeutics, 2010)

System: kinases in the Src family
Settings: read-out: apparent IC50, Srctide; multiplexed, treated K-562 lysates (Figure 6A)

IC50: 1.1 nM
SMILES: Cc1nc(Nc2ncc(C(=O)Nc3c(C)cccc3Cl)s2)cc(N2CCN(CCO)CC2)n1 [dasatinib, N-(2-chloro-6-methyl-phenyl)-2-(6-(4-(2-hydroxyethyl)-piperazin-1-yl)-2-methylpyrimidin-4-ylamino)thiazole-5-carboxamide]
